Type in all cases: in vivo
The test system of one test is Matricaria inodora. The test is described as follows: greenhouse herbicidal test, post-emergence treatment. Particulars: post-emergence method, application rate 2000 g/ha, scale from 0 to 100, test period 2 to 4 weeks. From the text: (§1) The seeds of the test plants were sown separately for each species. For the post-emergence treatment, the test plants were first grown to a height of 3 to 15 cm, depending on the plant habit, and only then treated with the active ingredients which had been suspended or emulsified in water. For this purpose, the test plants were either sown directly and grown in the same containers, or they were first grown separately as seedlings and transplanted into the test containers a few days prior to treatment. Depending on the species, the plants were kept at 10-25° C. or 20-35° C., respectively. The test period extended over 2 to 4 weeks. During this time, the plants were tended, and their response to the individual treatments was evaluated. Evaluation was carried out using a scale from 0 to 100. 100 means no emergence of the plants, or complete destruction of at least the aerial moieties, and 0 means no damage, or normal course of growth. A good herbicidal activity is given at values of at least 70 and a very good herbicidal activity is given at values of at least 85. The plants used in the greenhouse experiments were of the following species: [table]

A further test relates to Amaranthus retroflexus. The test is described as above. The settings on record: post-emergence method, application rate 2000 g/ha, scale from 0 to 100, test period 2 to 4 weeks.
Excerpt: as §1

Test [1] concerns Echinocloa crus-galli. The description is as above. Particulars: post-emergence method, application rate 2000 g/ha, scale from 0 to 100, test period 2 to 4 weeks.
Excerpt: as §1

The test system of another test is Apera spica-venti. The test is described as follows: greenhouse herbicidal test, pre-emergence treatment. Particulars: pre-emergence method, application rate 2000 g/ha, scale from 0 to 100, test period 2 to 4 weeks. From the text: (§2) The seeds of the test plants were sown separately for each species. For the pre-emergence treatment, the active ingredients, which had been suspended or emulsified in water, were applied directly after sowing by means of finely distributing nozzles. The containers were irrigated gently to promote germination and growth and subsequently covered with transparent plastic hoods until the plants had rooted. This cover caused uniform germination of the test plants, unless this had been impaired by the active ingredients. Depending on the species, the plants were kept at 10-25° C. or 20-35° C., respectively. The test period extended over 2 to 4 weeks. During this time, the plants were tended, and their response to the individual treatments was evaluated. Evaluation was carried out using a scale from 0 to 100. 100 means no emergence of the plants, or complete destruction of at least the aerial moieties, and 0 means no damage, or normal course of growth. A good herbicidal activity is given at values of at least 70 and a very good herbicidal activity is given at values of at least 85. The plants used in the greenhouse experiments were of the following species: [table]

Another test concerns Alopecurus myosuroides. The test is described as follows: greenhouse herbicidal test, post-emergence treatment. The settings on record: post-emergence method, application rate 2000 g/ha, scale from 0 to 100, test period 2 to 4 weeks.
Excerpt: as §1

A further test has as its system Avena fatua. The description is as above. Particulars: post-emergence method, application rate 2000 g/ha, scale from 0 to 100, test period 2 to 4 weeks.
Excerpt: as §1

A further test concerns Setaria viridis. The description is as above. Particulars: post-emergence method, application rate 2000 g/ha, scale from 0 to 100, test period 2 to 4 weeks.
Excerpt: as §1

The test system of test [2] is Echinocloa crus-galli. Kind of test: greenhouse herbicidal test, pre-emergence treatment. The settings on record: pre-emergence method, application rate 2000 g/ha, scale from 0 to 100, test period 2 to 4 weeks.
Excerpt: as §2

The next test deals with ABUTH. Kind of test: greenhouse herbicidal test, post-emergence treatment. The settings on record: post-emergence method, application rate 2000 g/ha, scale from 0 to 100, test period 2 to 4 weeks.
Excerpt: as §1, with “85.” for “85. The plants used in the greenhouse experiments were of the following species: [table]”

In the case of `Cc1nc(C2CC2)ncc1-c1ncccc1Cl` [Ex.01], the “herbicidal activity against MATIN” value in the test on Matricaria inodora is “very good (a very good herbicidal activity is given at values of at least 85)”. The “herbicidal activity against AMARE” value in the test with Amaranthus retroflexus is reported as “very good (a very good herbicidal activity is given at values of at least 85)”.
On to `CCOC(=O)C(C)c1nc(C2CC2)ncc1-c1ncccc1Cl` (centres unmarked) [Ex.21], for which the “herbicidal activity against ECHCG” value in the test on Echinocloa crus-galli [1] is given as “very good (a very good herbicidal activity is given at values of at least 85)”. In addition, in the test with Amaranthus retroflexus, the “herbicidal activity against AMARE” value is on record as “good (A good herbicidal activity is given at values of at least 70)”. Also, in the test on Apera spica-venti, the “herbicidal activity against APESV” value was “good (A good herbicidal activity is given at values of at least 70)”.
Consider `CCOC(=O)C(C)(C)c1nc(C2CC2)ncc1-c1ncccc1Cl` [Ex.22], for which the “herbicidal activity against AMARE” value in the test with Amaranthus retroflexus is given as “very good (a very good herbicidal activity is given at values of at least 85)”.
On to `OC(Cc1nc(C2CC2)ncc1-c1ncccc1Cl)c1ccco1` (centres unmarked) [Ex.24], for which the “herbicidal activity against ALOMY” value in the test with Alopecurus myosuroides is given as “very good (a very good herbicidal activity is given at values of at least 85)”. Also, the “herbicidal activity against AVEFA” value in the test on Avena fatua is recorded as “good (A good herbicidal activity is given at values of at least 70)”. Further, in the test with Setaria viridis, the “herbicidal activity against SETVI” value is “good (A good herbicidal activity is given at values of at least 70)”. For the same molecule, the “herbicidal activity against ECHCG” value in the test with Echinocloa crus-galli [2] was “very good (a very good herbicidal activity is given at values of at least 85)”. Further, the “herbicidal activity against APESV” value with Apera spica-venti is listed as “very good (a very good herbicidal activity is given at values of at least 85)”.
As to `Clc1cccnc1-c1cnc(C2CC2)nc1C=C1CCCC1` [Ex.28], the “herbicidal activity against ALOMY” value in the test on Alopecurus myosuroides was “very good (a very good herbicidal activity is given at values of at least 85)”. For the same molecule, the “herbicidal activity against AVEFA” value with Avena fatua was “good (A good herbicidal activity is given at values of at least 70)”. The “herbicidal activity against ECHCG” value in the test on Echinocloa crus-galli [1] and in the test on Echinocloa crus-galli [2] was “very good (a very good herbicidal activity is given at values of at least 85)” each time. In addition, the “herbicidal activity against APESV” value with Apera spica-venti is listed as “very good (a very good herbicidal activity is given at values of at least 85)”.
On to `CC(O)Cc1nc(C2CC2)ncc1-c1ncccc1Cl` (centres unmarked) [Ex.29], for which, in the test on Setaria viridis, the “herbicidal activity against SETVI” value was “very good (a very good herbicidal activity is given at values of at least 85)”. Further, the “herbicidal activity against ECHCG” value with Echinocloa crus-galli [2] is “very good (a very good herbicidal activity is given at values of at least 85)”. Besides, the “herbicidal activity against APESV” value in the test with Apera spica-venti is “very good (a very good herbicidal activity is given at values of at least 85)”. The “herbicidal activity against ABUTH” value in the test on ABUTH is “good (A good herbicidal activity is given at values of at least 70)”.
With `OC(Cc1nc(C2CC2)ncc1-c1ncccc1Cl)c1cccs1` (centres unmarked) [Ex.33], in the test with Echinocloa crus-galli [1], the “herbicidal activity against ECHCG” value was “good (A good herbicidal activity is given at values of at least 70)”. In addition, the “herbicidal activity against AMARE” value with Amaranthus retroflexus is “very good (a very good herbicidal activity is given at values of at least 85)”.
Take `Cc1occc1-c1nc(C2CC2)ncc1-c1ncccc1Cl` [Ex.34]: the “herbicidal activity against ALOMY” value with Alopecurus myosuroides is listed as “very good (a very good herbicidal activity is given at values of at least 85)”. The “herbicidal activity against AVEFA” value in the test on Avena fatua is “good (A good herbicidal activity is given at values of at least 70)”. The “herbicidal activity against AMARE” value with Amaranthus retroflexus is reported as “very good (a very good herbicidal activity is given at values of at least 85)”. Further, the “herbicidal activity against ECHCG” value with Echinocloa crus-galli [2] is listed as “very good (a very good herbicidal activity is given at values of at least 85)”. In the test on Apera spica-venti, the “herbicidal activity against APESV” value is recorded as “very good (a very good herbicidal activity is given at values of at least 85)”.
Consider `Clc1cccnc1-c1cnc(C2CC2)nc1C=Cc1cccs1` [Ex.35], for which, in the test with Alopecurus myosuroides, the “herbicidal activity against ALOMY” value is recorded as “very good (a very good herbicidal activity is given at values of at least 85)”. Besides, the “herbicidal activity against AVEFA” value with Avena fatua is “good (A good herbicidal activity is given at values of at least 70)”. In addition, the “herbicidal activity against SETVI” value with Setaria viridis is on record as “very good (a very good herbicidal activity is given at values of at least 85)”. Further, in the test on Echinocloa crus-galli [2], the “herbicidal activity against ECHCG” value was “very good (a very good herbicidal activity is given at values of at least 85)”. For the same molecule, in the test on Apera spica-venti, the “herbicidal activity against APESV” value is on record as “very good (a very good herbicidal activity is given at values of at least 85)”.
In the case of `Clc1cccnc1-c1cnc(C2CC2)nc1C=Cc1ccccc1` [Ex.37], in the test on Amaranthus retroflexus, the “herbicidal activity against AMARE” value is on record as “very good (a very good herbicidal activity is given at values of at least 85)”. The “herbicidal activity against SETVI” value with Setaria viridis is on record as “very good (a very good herbicidal activity is given at values of at least 85)”. Moreover, in the test with ABUTH, the “herbicidal activity against ABUTH” value is given as “very good (a very good herbicidal activity is given at values of at least 85)”.
Regarding `CCC(=O)Cc1nc(C2CC2)ncc1-c1ncccc1Cl` [Ex.44], the “herbicidal activity against ALOMY” value in the test on Alopecurus myosuroides is on record as “very good (a very good herbicidal activity is given at values of at least 85)”. Further, in the test with Amaranthus retroflexus, the “herbicidal activity against AMARE” value is “good (A good herbicidal activity is given at values of at least 70)”. The “herbicidal activity against ECHCG” value in the test with Echinocloa crus-galli [2] is recorded as “very good (a very good herbicidal activity is given at values of at least 85)”. Also, in the test with Apera spica-venti, the “herbicidal activity against APESV” value is “very good (a very good herbicidal activity is given at values of at least 85)”.
On to `Cc1nc(C)c(-c2nc(C3CC3)ncc2-c2ncccc2Cl)o1` [Ex.46], for which the “herbicidal activity against AVEFA” value in the test on Avena fatua is “very good (a very good herbicidal activity is given at values of at least 85)”. Moreover, the “herbicidal activity against ECHCG” value in the test with Echinocloa crus-galli [1] and in the test on Echinocloa crus-galli [2] was “very good (a very good herbicidal activity is given at values of at least 85)” in each case. Moreover, in the test on Setaria viridis, the “herbicidal activity against SETVI” value is recorded as “very good (a very good herbicidal activity is given at values of at least 85)”. Besides, in the test on Apera spica-venti, the “herbicidal activity against APESV” value is “very good (a very good herbicidal activity is given at values of at least 85)”.

Values taken from patent US20210345613A1, “HERBICIDAL PYRIMIDINE COMPOUNDS” (BASF SE, priority 2016, published 2021).
